According to patent US20230416168A1 (EUROCHEM ANTWERPEN, priority 2020, published 2023):

Columns and labels:
Nitrosospira multiformis = test: Nitrification inhibition assay with Nitrosospira multiformis (nitrite level after 24 h); format: cell-based; conditions: for IC50 / activity at 100 µM: Nitrosospira multiformis; for IC50: 8-point dose response, 2 to 100 μM, read-out: IC50; for activity at 100 µM: tested concentration 100 μM, 24 h, normalized to DMSO (100%) and 100 μM DMP (0%), read-out: Nitrification at tested concentration (0 = maximum activity)
Method in brief: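 Dense N. multiformis cultures (5× concentrated in 181-medium) with ammonium were incubated 24 h at 30° C with shaking, then nitrite measured by Griess reagent at 540 nm. Relative nitrification normalised per plate to DMSO and 100 μM DMP controls; IC50 from logistic fit of 8-point doses 2-100 μM.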

[1] = test system: NH3 or NH2OH oxidation in N. europaea cells; test: Nitrosomonas europaea ammonia vs. hydroxylamine oxidation assay; format: cell-based; conditions: compounds 50 μM, NO2- after 30 min; for Nitrification from NH2OH (% compared to DMSO): 1 mM NH2OH as N-source; for Nitrification from NH3 (% compared to DMSO): NH4+ 1 mM as N-source
Procedure: Two days old, late-log phase cultures with a NO2− concentration between 10 and 20 mM were washed 3 times in fresh growth medium (without N) and finally 4 times overconcentrated via centrifugation (4000 rpm, 15 min, 4° C.). Transparent, flat bottom 96-well plate (Cat. No. 353072, Falcon® 96 Well Clear Flat Bottom Microplate, Corning®) were filled with 150 μl culture per well using a dispenser (Multidrop™ Combi Reagent Dispenser, Thermo Scientific™). Compounds (final concentration 50 μM) were added in triplicate to the multi-well plate by use of a Tecan robot (Freedom EVO®, Tecan). Thiourea (positive control for inhibition of NH3 oxidation—final concentration 100 μM) and phenylhydrazine hydrochloride (positive control for inhibition of NH2OH oxidation—final concentration 1 mM) were added to the outer two columns. Each plate was made in duplicate to add either 500 μM (NH4)2SO4 (final [NH4+]=1 mM) or 1 mM NH2OH. All plates were separately wrapped in Parafilm. Stacks of 4 plates were put on top of a 96-well plate filled with 100 μl MilliQ per well, covered with aluminum foil and shaken (±150 rpm) at 28° C. To prevent read-out of secondary effects on NO2− production, NO2− was measured only 30 min later. For this, the samples were first 2 times diluted by pipetting 15 μl in 15 μl fresh growth medium in 96-well intermediate plates (Cat. Ref. PCR-96-FS-C, 96-well PCR Microplate, Axygen®) to then mix 15 μl of the diluted samples with 15 μl Griess reagent in the wells of a transparent, flat bottom 384-well plate (Cat. No. X^7001, Low Profile Microplate, Molecular Devices) that was measured spectrophotometrically at 540 nm (EnVision, Perkin Elmer®).
To get insights on the targeted metabolic pathway and to discriminate between compounds that specifically affect NH3 oxidation or that affect another pathway, three representative novel nitrification inhibitors (Examples 1, 5 and 6) were tested in the “ammonia vs hydroxylamine oxidation assay” in which NO2− production from NH3 was compared with NO2− production from NH2OH.

SMILES | nitrification inhibition, in words (Nitrosospira multiformis) | Average nitrification [%] in Nitrosospira multiformis (Nitrosospira multiformis; 2 μM) | Average nitrification [%] in Nitrosospira multiformis (Nitrosospira multiformis; 3.5 μM) | Average nitrification [%] in Nitrosospira multiformis (Nitrosospira multiformis; 6 μM) | Average nitrification [%] in Nitrosospira multiformis (Nitrosospira multiformis; 11 μM) | Average nitrification [%] in Nitrosospira multiformis (Nitrosospira multiformis; 19 μM) | Average nitrification [%] in Nitrosospira multiformis (Nitrosospira multiformis; 33 μM) | Average nitrification [%] in Nitrosospira multiformis (Nitrosospira multiformis; 57 μM) | Average nitrification [%] in Nitrosospira multiformis (Nitrosospira multiformis; 100 μM) | IC50 (Nitrosospira multiformis) | activity at 100 µM (Nitrosospira multiformis) | Nitrification from NH2OH (% compared to DMSO) [1] | Nitrification from NH3 (% compared to DMSO) [1]
S=c1[nH]ccs1 [Example 24, 3H-1,3-thiazole-2-thione] | very strong effect | 25% | 4% | 0% | 0% | 0% | 0% | 0% | 0% | 1.3 µM | 0% | – | –
S=C1NCCO1 [Example 7] | – | – | – | – | – | – | – | – | – | < 10 µM | 0% | – | –
CN(Cc1nc2ccccc2s1)CN1CCOC1=S [Example 5, 3-[[1,3-benzothiazol-2-ylmethyl(methyl)amino]methyl]-1,3-oxazolidine-2-thione] | strong nitrification inhibition | – | – | – | – | – | – | – | – | < 3.5 µM | 0% | 77% | 17%
CN(Cc1c(Cl)nc2sccn12)CN1CCSC1=S [Example 1, 3-[[(6-chloroimidazo[2,1-b][1,3]thiazol-5-yl)methyl-methylamino]methyl]-1,3-thiazolidine-2-thione] | strongly inhibited nitrification | – | – | – | – | – | – | – | – | < 0.8 µM | 0% | 81% | 12%
CSc1nccs1 [Example 25, 2-(methylsulfanyI)-1,3-thiazole] | – | 81% | 80% | 80% | 76% | 74% | 67% | 62% | 53% | 140 µM | 53% | – | –
